This test concerns platelet aggregation in dog PRP. Description: In-vitro platelet aggregation in PRP (ADP-induced, dog platelet-rich plasma). Format: cell-based. The conditions noted are these: Canis lupus familiaris; for inhibition at 10 µM: test concentration of 10 μM; for IC50: concentration inhibiting aggregation by 50%. The protocol:
Compounds of the invention were evaluated by an […] assay to determine compound activity as an inhibitors of platelet aggregation.
Healthy male or female dogs were fasted for 8 hours prior to drawing blood; then 30 mL whole blood was collected using a butterfly needle and 30 cc plastic syringe with 3 ml of 0.129M buffered sodium citrate (3.8%). The syringe was rotated carefully as blood was drawn to mix the citrate. Platelet-rich plasma (PRP) was prepared by centrifugation at 975×g for 3.17 minutes at room temperature, allowing the centrifuge to coast to a stop without braking. The PRP was removed from the blood with a plastic pipette and placed in a plastic capped, 50 ml Corning conical sterile centrifuge tube which was held at room temperature. Platelet poor plasma (PPP) was prepared by centrifuging the remaining blood at 2000×g for 15 minutes at room temperature allowing the centrifuge to coast to a stop without braking. The PRP was adjusted with PPP to a count of 2-3×10^8 s platelets per ml. 400 μL of the PRP preparation and 50 μL of the compound to be tested or saline were preincubated for 1 minute at 37° C. in a BioData aggregometer (BioData, Horsham, Pa.). 50 μL of adenosine 5'diphosphate (ADP) (50 μm final concentration) was added to the cuvettes and the aggregation was monitored for 1 minute. All compounds are tested in duplicate. Inhibition of aggregation for each sample was determined using the formula: % inhibition=(Tinh -Tbas)/(Tagg -Tbas ×100 where Tbas is % of light transmission in PRP (baseline), Tagg is % of light transmission in the aggregated PRP sample (saline control) and Tinh is % of light transmission in the sample containing the inhibitor.

By inhibition is commonly meant the drop in the measured response relative to a control, in per cent. What is called IC50 is the concentration at which inhibition is half-maximal. Lower therefore signals higher potency.

As for `CCOC(=O)CC(CNS(=O)(=O)c1ccc(C)cc1)NC(=O)CCCCc1ccc(C(=N)N)cc1` (racemic) [Example 3, (±) Ethyl-3-[[5-[5-(Aminoiminomethyl)phenyl]-1-oxopentyl]amino]-4-[[(4-methylphenyl)sulfonyl]amino]butanoate], testing at 10 µM gave an inhibition of 20%.

The compound `Cc1ccc(S(=O)(=O)NCC(CC(=O)O)NC(=O)CCCCc2ccc(C(=N)N)cc2)cc1` (racemic) [Example 1, (±)-3-[[5-[4-(Aminoiminomethyl)phenyl]-1-oxopentyl]amino]-4-[[(4-methylphenyl)sulfonyl]amino]butanoic acid] had an IC50 of 1 µM and an inhibition at 10 µM of 100%.

In the case of `COc1ccc(S(=O)(=O)NCC(CC(=O)O)NC(=O)CCCCc2ccc(C(=N)N)cc2)cc1` (racemic) [Example 2, (±)-3-[[5-[4-(Aminoiminomethyl)phenyl]-1-oxopentyl]amino]-4-[[(4-methoxyphenyl)sulfonyl]amino]butanoic Acid], it took 8 µM to reach half-maximal inhibition (IC50) and the inhibition at 10 µM was determined as 100%.

For the origin of these results see patent US5264457A, “Phenyl amidines sulfonamides useful as platelet aggregation inhibitors” (G. D. Searle & Co., priority 1992, dated 1993).
